Experimental data from publication PMC8261254 (Asian Journal of Pharmaceutical Sciences, 2021).
Values after ≈ are worked out from the molar mass of the structure shown. Like-named read-outs stand apart in the source and are kept apart here.

Assays:
[1] = PTX solubility in PLHNs / water; type: physicochemical
[2] = cited from earlier work

In the case of `CC(=O)O[C@H]1C(=O)[C@@]2(C)[C@H]([C@H](OC(=O)c3ccccc3)[C@]3(O)C[C@H](OC(=O)[C@H](O)[C@@H](NC(=O)c4ccccc4)c4ccccc4)C(C)=C1C3(C)C)[C@]1(OC(C)=O)CO[C@@H]1C[C@@H]2O` [PTX, Paclitaxel], the solubility [1] is listed as about 6 µg/mL (≈ 7.03 µM), the “Plasma concentration threshold above which PTX is pharmacologically active” value [2] is listed as 0.1 µM and the “Plasma concentration threshold above which PTX is pharmacologically active” value ([2]; equivalent of 0.1 µM) is listed as 85.3 ng/ml.
